Data from ChEMBL document CHEMBL1125956, “A new potent inhibitor for angiotensin converting enzyme: (R,S)-captopril-F3” (Bioorg Med Chem Lett, 1991).

Target: T1, Angiotensin-converting enzyme (Oryctolagus cuniculus, UniProt P12822)
T1 sequence (P12822 whole entry): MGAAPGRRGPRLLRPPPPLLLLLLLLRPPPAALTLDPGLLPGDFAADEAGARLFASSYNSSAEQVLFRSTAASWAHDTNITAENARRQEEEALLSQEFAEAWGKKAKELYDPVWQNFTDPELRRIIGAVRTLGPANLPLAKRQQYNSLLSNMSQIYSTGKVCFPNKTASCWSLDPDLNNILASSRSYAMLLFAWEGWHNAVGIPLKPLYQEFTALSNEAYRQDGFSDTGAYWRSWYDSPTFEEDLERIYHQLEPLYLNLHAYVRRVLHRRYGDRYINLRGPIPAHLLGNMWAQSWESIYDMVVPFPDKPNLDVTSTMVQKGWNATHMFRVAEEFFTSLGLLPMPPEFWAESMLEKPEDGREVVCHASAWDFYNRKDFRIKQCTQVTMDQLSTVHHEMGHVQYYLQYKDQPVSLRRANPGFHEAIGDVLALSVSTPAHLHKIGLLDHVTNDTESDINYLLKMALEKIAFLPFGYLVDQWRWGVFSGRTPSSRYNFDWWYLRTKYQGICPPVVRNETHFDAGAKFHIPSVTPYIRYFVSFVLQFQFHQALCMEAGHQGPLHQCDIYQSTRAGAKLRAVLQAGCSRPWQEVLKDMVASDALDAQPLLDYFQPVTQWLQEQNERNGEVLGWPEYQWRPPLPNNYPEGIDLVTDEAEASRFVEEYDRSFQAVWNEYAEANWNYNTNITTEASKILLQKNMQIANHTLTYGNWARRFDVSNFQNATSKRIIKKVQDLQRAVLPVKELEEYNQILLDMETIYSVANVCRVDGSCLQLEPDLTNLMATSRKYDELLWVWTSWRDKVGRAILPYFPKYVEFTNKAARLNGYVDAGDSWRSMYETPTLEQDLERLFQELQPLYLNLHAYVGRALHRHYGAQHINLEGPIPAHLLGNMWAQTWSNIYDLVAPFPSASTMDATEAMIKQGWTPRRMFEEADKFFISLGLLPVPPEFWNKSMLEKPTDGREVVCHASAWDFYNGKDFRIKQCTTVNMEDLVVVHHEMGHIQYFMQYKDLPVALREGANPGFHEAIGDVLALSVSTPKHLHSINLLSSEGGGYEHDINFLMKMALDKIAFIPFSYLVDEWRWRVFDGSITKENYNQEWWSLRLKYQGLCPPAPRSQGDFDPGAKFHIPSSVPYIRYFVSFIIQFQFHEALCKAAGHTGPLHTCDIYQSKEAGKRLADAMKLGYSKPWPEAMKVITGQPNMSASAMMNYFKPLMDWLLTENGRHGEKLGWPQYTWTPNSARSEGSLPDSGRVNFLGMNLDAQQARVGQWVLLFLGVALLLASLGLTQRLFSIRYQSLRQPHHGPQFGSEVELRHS
Assay: In vitro inhibitory activity was evaluated against angiotensin converting enzyme from rabbit in bovine buffered base

| IC50 | Structure (SMILES) |
| --- | --- |
| 480 nM | O=C(O)[C@@H]1CCCN1C(=O)[C@H](CS)C(F)(F)F |
| 0.29 nM | O=C(O)[C@@H]1CCCN1C(=O)[C@@H](CS)C(F)(F)F |
